Values joined by “and” are separate entries in the source; they are usually repeats but may differ in a detail not shown here. Equal values may be shown once. Toxic doses and inconclusive results are not listed. Rule as the data show it: active = T/C of 150% or more; inactive = T/C below 125%.
System: L1210 leukemia ip in BDF1 mice, survival T/C
Test: NCI In Vivo Anticancer Drug Screen. Data for tumor model L1210 Leukemia (intraperitoneal) in B6D2F1 (BDF1) mice
Conditions: endpoint: mean survival time, higher = longer survival
In short: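 Survival endpoint. Drug-treated group vs vehicle group, expressed as T divided by C. Tumor passaged by transplantation.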

[1] = dose: 100.0 mg/kg/injection, schedule: Q01DX001 (ip), vehicle: saline with Tween-80
[2] = dose: 200.0 mg/kg/injection, schedule: Q01DX001 (ip), vehicle: saline with Tween-80
[3] = dose: 400.0 mg/kg/injection, schedule: Q01DX001 (ip), vehicle: saline with Tween-80
[4] = dose: 100.0 mg/kg/injection, schedule: Q04DX003 (ip), vehicle: Klucel (hydroxypropylcellulose) (HPC)
[5] = dose: 200.0 mg/kg/injection, schedule: Q04DX003 (ip), vehicle: Klucel (hydroxypropylcellulose) (HPC)
[6] = dose: 400.0 mg/kg/injection, schedule: Q04DX003 (ip), vehicle: Klucel (hydroxypropylcellulose) (HPC)
[7] = dose: 100.0 mg/kg/injection, schedule: Q01DX001 (ip), vehicle: saline
[8] = dose: 200.0 mg/kg/injection, schedule: Q01DX001 (ip), vehicle: saline
[9] = dose: 400.0 mg/kg/injection, schedule: Q01DX001 (ip), vehicle: saline
[10] = dose: 100.0 mg/kg/injection, schedule: Q01DX009 (ip), vehicle: saline with Tween-80
[11] = dose: 100.0 mg/kg/injection, schedule: Q04DX003 (ip), vehicle: saline with Tween-80
[12] = dose: 200.0 mg/kg/injection, schedule: Q01DX009 (ip), vehicle: saline with Tween-80
[13] = dose: 400.0 mg/kg/injection, schedule: Q01DX009 (ip), vehicle: saline with Tween-80
[14] = dose: 400.0 mg/kg/injection, schedule: Q04DX003 (ip), vehicle: saline with Tween-80

Measured: T/C

CC1CCC2(C(=O)OC3OC(COC4OC(CO)C(OC5OC(C)C(O)C(O)C5O)C(O)C4O)C(O)C(O)C3O)CCC3(C)C(=CCC4C5(C)CC(O)C(O)C(C)(CO)C5CCC43C)C2C1C (stereo not given)
inactive: [1] 98 % of control | [2] 98 % of control | [3] 97 % of control

COc1ccc(Cl)cc1NC(=O)NC(Cc1ccccc1)c1ccccc1 (stereo not given)
inactive: dose: 100.0 mg/kg/injection, schedule: Q01DX009 (ip), vehicle: Klucel (hydroxypropylcellulose) (HPC) 102 % of control | [4] 101 % of control | dose: 200.0 mg/kg/injection, schedule: Q01DX009 (ip), vehicle: Klucel (hydroxypropylcellulose) (HPC) 100 % of control | [5] 103 % of control | dose: 400.0 mg/kg/injection, schedule: Q01DX009 (ip), vehicle: Klucel (hydroxypropylcellulose) (HPC) 105 % of control | [6] 103 % of control

CCOc1cc2cc(C(=O)O)sc2cc1OCC
inactive: [7] 101 % of control | [8] 110 % of control | [9] 104 % of control

CCOC(=O)CCSCC(C)(C)C(=O)OCC
inactive: dose: 100.0 mg/kg/injection, schedule: Q04DX003 (ip), vehicle: saline 105 % of control | dose: 200.0 mg/kg/injection, schedule: Q04DX003 (ip), vehicle: saline 105 % of control | dose: 400.0 mg/kg/injection, schedule: Q04DX003 (ip), vehicle: saline 103 % of control

CCCCCCCCP(=O)(CCCCCC)CCCCCC
inactive: [1] 97 % of control | [2] 101 % of control | [3] 111 % of control

CCC[CH2][Sn]1([CH2]CCC)[O]OC(c2ccc(OC)cc2)[O]1 (stereo not given)
inactive: dose: 6.25 mg/kg/injection, schedule: Q01DX005 (sc), vehicle: olive oil, sesame oil, peanut oil 95 % of control | dose: 6.25 mg/kg/injection, schedule: Q01DX009 (sc), vehicle: olive oil, sesame oil, peanut oil 104 % of control and 88 % of control | dose: 12.5 mg/kg/injection, schedule: Q01DX005 (sc), vehicle: olive oil, sesame oil, peanut oil 106 % of control | dose: 12.5 mg/kg/injection, schedule: Q01DX009 (sc), vehicle: olive oil, sesame oil, peanut oil 104 % of control and 91 % of control | dose: 25.0 mg/kg/injection, schedule: Q01DX005 (sc), vehicle: olive oil, sesame oil, peanut oil 95 % of control | dose: 25.0 mg/kg/injection, schedule: Q04DX002 (sc), vehicle: olive oil, sesame oil, peanut oil 97 % of control | dose: 50.0 mg/kg/injection, schedule: Q04DX002 (sc), vehicle: olive oil, sesame oil, peanut oil 106 % of control | dose: 100.0 mg/kg/injection, schedule: Q04DX002 (sc), vehicle: olive oil, sesame oil, peanut oil 100 % of control

CCOC(=O)c1ccc(N(CC(O)CN=[N+]=[N-])S(=O)(=O)c2ccc(C)cc2)cc1 (stereo not given)
inactive: [1] 101 % of control | [10] 102 % of control and 107 % of control | dose: 100.0 mg/kg/injection, schedule: Q04DX002 (ip), vehicle: saline with Tween-80 98 % of control | [11] 88 % of control | [2] 101 % of control | [12] 95 % of control and 100 % of control | dose: 200.0 mg/kg/injection, schedule: Q04DX002 (ip), vehicle: saline with Tween-80 93 % of control and 89 % of control | [3] 104 % of control | [13] 104 % of control and 91 % of control | dose: 400.0 mg/kg/injection, schedule: Q04DX002 (ip), vehicle: saline with Tween-80 96 % of control and 89 % of control | [14] 88 % of control

Cc1ccccc1SCC(N)=O
inactive: [4] 91 % of control | [5] 98 % of control | [6] 107 % of control

CC(=O)c1ccccc1N1CCCCC1
inactive: dose: 100.0 mg/kg/injection, schedule: Q04DX002 (ip), vehicle: saline 100 % of control | dose: 200.0 mg/kg/injection, schedule: Q04DX002 (ip), vehicle: saline 89 % of control

NC(N)=NC(N)=Nc1ccc(S(=O)(=O)c2ccc(N=C(N)N=C(N)N)cc2)cc1
inactive: [10] 95 % of control | [12] 95 % of control

CCOc1ccc(NC(N)=O)cc1
inactive: dose: 100.0 mg/kg/injection, schedule: Q04DX002 (ip), vehicle: gum acacia 107 % of control | dose: 200.0 mg/kg/injection, schedule: Q04DX002 (ip), vehicle: gum acacia 95 % of control | dose: 400.0 mg/kg/injection, schedule: Q04DX002 (ip), vehicle: gum acacia 100 % of control

CCCC(Sc1ncnc2nc[nH]c12)C(=O)O (stereo not given)
inactive: dose: 100.0 mg/kg/injection, schedule: Q01DX001 (ip), vehicle: carboxymethylcellulose (CMC) 95 % of control | dose: 200.0 mg/kg/injection, schedule: Q01DX001 (ip), vehicle: carboxymethylcellulose (CMC) 98 % of control | dose: 400.0 mg/kg/injection, schedule: Q01DX001 (ip), vehicle: carboxymethylcellulose (CMC) 103 % of control

NCCc1ccc(OCc2ccccc2)c(OCc2ccccc2)c1
inactive: dose: 12.5 mg/kg/injection, schedule: Q01DX009 (ip), vehicle: saline 108 % of control | dose: 12.5 mg/kg/injection, schedule: Q04DX003 (ip), vehicle: saline 98 % of control | dose: 25.0 mg/kg/injection, schedule: Q01DX009 (ip), vehicle: saline 97 % of control | dose: 25.0 mg/kg/injection, schedule: Q04DX003 (ip), vehicle: saline 102 % of control | dose: 50.0 mg/kg/injection, schedule: Q04DX003 (ip), vehicle: saline 98 % of control

CCOc1ncc([N+](=O)[O-])cc1[N+](=O)[O-]
inactive: [4] 88 % of control | [5] 92 % of control | [6] 90 % of control

O=C(NC(Cc1ccccc1)C(=O)O)OCc1ccccc1 (stereo not given)
inactive: [10] 98 % of control | [11] 105 % of control | [12] 98 % of control | dose: 200.0 mg/kg/injection, schedule: Q04DX003 (ip), vehicle: saline with Tween-80 94 % of control | [13] 88 % of control | [14] 96 % of control

CCCCCCCCCCCCSC1=CC(=O)C=CC1=O
inactive: dose: 5.0 mg/kg/injection, schedule: Q01DX001 (ip), vehicle: saline 101 % of control | dose: 10.0 mg/kg/injection, schedule: Q01DX001 (ip), vehicle: saline 108 % of control | dose: 20.0 mg/kg/injection, schedule: Q01DX001 (ip), vehicle: saline 97 % of control | dose: 40.0 mg/kg/injection, schedule: Q01DX001 (ip), vehicle: saline 112 % of control | dose: 80.0 mg/kg/injection, schedule: Q01DX001 (ip), vehicle: saline 112 % of control

OC(Cc1cc(CC(O)(C(F)(F)F)C(F)(F)F)ncn1)(C(F)(F)F)C(F)(F)F
inactive: [10] 108 % of control | [12] 97 % of control | [13] 97 % of control

COc1ccc2c3c1OC1C4(OC)CCC5(c6c(O)ccc(O)c64)C(C2)N(C)CCC315 (stereo not given)
inactive: [7] 86 % of control | [8] 96 % of control | [9] 94 % of control

Source: PubChem BioAssay AID248 (DTP/NCI, 2004)
